Experiments:
PAF induced lethality = PAF induced lethality in mice; assay type: in vivo; details: PAF 150 μg/kg IV
Experimental: PAF given I.V. to mice causes an immediate hypotensive shock leading to death in 1 hour or less. Compounds are given intraperitoneally or P.O. at various times before the PAF challenge. Animals alive after 2 hours are counted and the activity of test compounds expressed as % survival corrected for any control (saline treated) animals which survived the PAF challenge.
Effect of Compound Given I.V. or P.O. in Protecting
Mice from a Lethal Challenge of PAF^a
^a lethal challenge of PAF is 150 μg/kg IV.

[1] = test system: Endotoxin induced shock and mortality; experiment: Endotoxin induced shock and mortality in mice: high dose acute mouse endotoxemia; assay type: in vivo, Male Balb/c mice; details: administered ip prior to a lethal ip injection of endotoxin
Description: (§1) Endotoxin administration produces a shock-like state characterized by vascular permeability changes, hypotension, neutropenia, thrombocytopenia,multiple organ damage and death. The major mediators released after endotoxin injection are TNF (tumor necrosis factor), PAF (platelet activating factor) and […] (interleukin I). PAF administration mimics the signs and symptoms of endotoxin induced shock and death and endotoxin also induces the release of PAF. Therefore, the effects of endotoxin should be blocked with a PAF antagonist.
(§2) Male Balb/c mice (approximately 20 g) are obtained from Charles River Laboratories and used after a one-two week acclimation period. Animals are given (ip) test compound dissolved in saline or water (sonicated and heated) at different time intervals prior to and after the ip injection of endotoxin (usually 2 hours before LPS endotoxin, and 3-4 hours after). Sigma E. Coli endotoxin, 0111:B4, phenol extraction, catalog #L2630 is used for these studies.
This LD value is approximately 50 mg/kg i.p. The number of survivors in each group (control or treated with test compound) is recorded after 24, 48 or 72 hours and the treated groups (receiving test compound and endotoxin) are compared with the untreated, control group (receiving endotoxin only) or saline control (receiving saline and endotoxin).
Effect of Compounds Given I.P. in High Dose Acute Mouse Endotoxemia […]

PAF receptor = target: T1, PAF receptor (Oryctolagus cuniculus, UniProt G1TEI7); experiment: Platelet Activating Factor antagonism in vitro: inhibition of PAF induced platelet aggregation in rabbit platelet rich plasma; assay type: cell-based, rabbit (New Zealand White); details: for % INH (inhibition of PAF induced platelet aggregation): dose .00001 M
T1 construct: centrifuged at 800 rpm for 10-15 minutes at room temperature to recover the platelet rich plasma (PRP); endogenous in cells; host or cells: platelets in citrated platelet rich plasma from male New Zealand White rabbits (Oryctolagus cuniculus)
T1 sequence (G1TEI7 1-342): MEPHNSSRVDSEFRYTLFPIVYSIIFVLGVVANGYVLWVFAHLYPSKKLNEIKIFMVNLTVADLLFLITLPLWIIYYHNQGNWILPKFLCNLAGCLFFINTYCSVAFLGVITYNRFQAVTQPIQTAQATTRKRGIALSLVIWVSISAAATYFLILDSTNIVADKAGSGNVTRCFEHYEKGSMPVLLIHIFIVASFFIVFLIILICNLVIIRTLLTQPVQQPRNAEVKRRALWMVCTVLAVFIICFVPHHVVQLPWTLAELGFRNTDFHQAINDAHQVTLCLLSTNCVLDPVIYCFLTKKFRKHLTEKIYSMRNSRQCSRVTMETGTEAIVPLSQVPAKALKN
Experimental: Test compounds are evaluated as PAF receptor antagonists in vitro by measuring inhibition of PAF (platelet activating factor) induced platelet aggregation. Platelet aggregation is measured by a modification of the method described in […], et. al., J. Med. Chem., 27 1174, 1984. […] All syringes and pipets are plastic. The blood is gently mixed and immediately centrifuged at 800 rpm for 10-15 minutes at room temperature to recover the platelet rich plasma (PRP). Platelet poor plasma (PPP) is prepared by centrifuging PRP at 2800 rpm for 10 minutes at room temperature. Dilutions (1:3000) of PRP in Isoton® diluent are made and platelet counts are determined on a Coulter Thrombocounter which is standardized with platelet reference standards (Interscience Platelet Control, Portland, Oreg.). PRP platelet counts are adjusted to approximately 400,000-500,000 platelets/μl by the addition of PPP. L-PAF (Platelet Activating Factor) is obtained from Calbiochem. […] All solutions are made up in plastic tubes, stored on ice and protected from heat and light. Solutions are prepared fresh or frozen at -20° C. and used within 48 hours. Incubation mixtures consisted of 400 μl PRP, 50 μl of saline diluent or test compound and 50 μl of PAF agonist. More specifically, 400 μl of PRP is stabilized in a cuvette for 1-2 minutes at 37° C. in the aggregometer to achieve a stable baseline, then 50 μl of saline or test compound is added and incubated for 5 minutes before addition of the challenge concentration of PAF. A submaximal concentration is determined from the dose response curve for PAF for that experiment. In general, the challenge concentration is 5E-8 or IE-7M. Aggregation is monitored for 5 minutes. Samples containing test compound or diluent are run simultaneously for comparison. Test compounds are initially evaluated at a screening concentration of 1E-5M. […] The recording equipment consists of a dual channel Chronolog aggregometer connected to a dual channel 10MV full scale deflection Omniscribe chart recorder (Houston Instruments). The chart recorder is calibrated daily with the use of a suspension of Bio-Rad latex beads (S-X 12 400 mesh) which has a density slightly greater than rabbit PRP. […] These limits defined a full scale deflection. The aggregation traces are analyzed by a digitizing method (C. Kohler and B. Zoltan, J. Pharm. Methods, 12, 113, 1984) with x, y coordinate data stored in a computer file. A suitable program computes parameters of interest such as the magnitude of aggregation. | ^a dose of compound that gives the indicated % inhibition. | ^b the % inhibition of PAF induced platelet aggregation. | ^c the molar concentration of compound that will inhibit 50% of the | platelet aggretation induced by PAF given at the indicated PAF challenge | concentration.

[2] = test system: Endotoxin induced shock and mortality; experiment: Endotoxin induced shock and mortality in mice: low dose, chronic mouse endotoxemia; assay type: in vivo, Male Balb/c mice
Description: as §1, §2
For the chronic endotoxin shock model, a lower dose of endotoxin is administered (generally 15 to 20 mg/kg i.p). This dose gives an LD80 in two to four days following LPS administration. Test compounds are given 2 hours before LPS and 3-4 hours after on the first day, followed by 3 or 4 consecutive days of BID dosing. The number of survivors in each group is recorded each day for a period of 5 to 7 days.
Effect of Compounds Given i.p. in Low Dose, Chronic Mouse Endoxemia

| Structure (SMILES) | % Survival (PAF induced lethality; P.O. 5 mg/kg) [%] | % Survival (PAF induced lethality; P.O. 20 mg/kg) [%] | % Survival ([2]; day 0, dose 10 mg/kg i.p.) [%] | No Surv./tot. ([2]; day 0, dose 10 mg/kg i.p.) | % Survival ([2]; day 1, dose 10 mg/kg i.p.) [%] | No Surv./tot. ([2]; day 1, dose 10 mg/kg i.p.) | % Survival ([2]; day 2, dose 10 mg/kg i.p.) [%] | No Surv./tot. ([2]; day 2, dose 10 mg/kg i.p.) | % Survival ([2]; day 3, dose 10 mg/kg i.p.) [%] | No Surv./tot. ([2]; day 3, dose 10 mg/kg i.p.) | % Survival ([2]; day 4, dose 10 mg/kg i.p.) [%] | No Surv./tot. ([2]; day 4, dose 10 mg/kg i.p.) | % Survival ([2]; day 5, dose 10 mg/kg i.p.) [%] | No Surv./tot. ([2]; day 5, dose 10 mg/kg i.p.) | No Surv./tot. ([2]; day 6, dose 10 mg/kg i.p.) | other results |
| --- | --- | --- | --- | --- | --- | --- | --- | --- | --- | --- | --- | --- | --- | --- | --- | --- |
| CCCCCCCCCCCCCCOc1cccc(CC(=O)Nc2cccc(C[n+]3csc(C)c3)c2)c1.[Br-] [5-Methyl-3-[[3-[[[3-(tetradecyloxy)phenyl]acetyl]amino]phenyl]methyl]thiazolium bromide] | 40 | 59 | 100 | 30/30 | 100 | 30/30 | 63 | 19/30 | 46 | 14/30 | 43 | 13/30 | 43 | 12/30 | 12/30 | activity against lethal ip injection of endotoxin [1]: did show some activity; % INH (inhibition of PAF induced platelet aggregation) (PAF receptor; PAF chall conc 5E-9 M): 100.0%; PAF antagonism (in words) (PAF receptor; in vitro platelet aggregation studies): known to be a PAF antagonist; % Survival ([2]; day 7, dose 10 mg/kg i.p.): 43%; No Surv./tot. ([2]; day 7, dose 10 mg/kg i.p.): 12/30 |
| CCCCCCCCCCCCCCOc1ccc(CC(=O)Nc2ccc(C[n+]3csc(C)c3)cc2)cc1.[Br-] [5-Methyl-3-[[4-[[[4-(tetradecyloxy)phenyl]acetyl]amino]phenyl]methyl]thiazolium bromide] | 32 | 32 | 100 | 30/30 | 100 | 30/30 | 80 | 24/30 | 80 | 24/30 | 80 | 24/30 | 80 | 24/30 | 24/30 | % INH (inhibition of PAF induced platelet aggregation) (PAF receptor; PAF chall conc 5.0000E-08 M): 100.0%; % Survival ([2]; day 0, dose 20 mg/kg i.p.): 100%; No Surv./tot. ([2]; day 0, dose 20 mg/kg i.p.): 30/30; % Survival ([2]; day 1, dose 20 mg/kg i.p.): 90%; No Surv./tot. ([2]; day 1, dose 20 mg/kg i.p.): 27/30; % Survival ([2]; day 2, dose 20 mg/kg i.p.): 60%; No Surv./tot. ([2]; day 2, dose 20 mg/kg i.p.): 18/30; % Survival ([2]; day 3, dose 20 mg/kg i.p.): 60%; No Surv./tot. ([2]; day 3, dose 20 mg/kg i.p.): 18/30; % Survival ([2]; day 4, dose 20 mg/kg i.p.): 60%; No Surv./tot. ([2]; day 4, dose 20 mg/kg i.p.): 18/30; % Survival ([2]; day 5, dose 20 mg/kg i.p.): 60%; No Surv./tot. ([2]; day 5, dose 20 mg/kg i.p.): 18/30; % Survival ([2]; day 6, dose 10 mg/kg i.p.): 80%; % Survival ([2]; day 6, dose 20 mg/kg i.p.): 56%; No Surv./tot. ([2]; day 6, dose 20 mg/kg i.p.): 17/30 |

— patent publication US5231182A, “Method of making certain aryl containing amides” (American Cyanamid Company, priority 1991, dated 1993)
